Results taken from patent publication US8030498B2, “Benzoylpyrazole compounds and herbicides containing them” (Ishihara Sangyo Kaisha, Ltd., priority 2005, dated 2011).

Tests used:
Assay type in all cases: in vivo
Details in all cases: visually observed 17th to 23rd day after application
[1] = test system: soybean (Glycine max Merr.); assay: Test Example 1: foliar treatment, growth inhibition rate, soybean
Text: (§1) Upland field soil was put into a 1/170,000 hectare pot, and seeds of various plants were sown. When the respective plants reached predetermined leaf stage ((1) barnyardgrass (Echinochloa crus-galli L.); 0.8 to 2.5 leaf stage, (2) crabgrass (Digitaria sanguinalis L.): 0.5 to 3.0 leaf stage, (3) greenfoxtail (Setaria viridis L.): 1.0 to 3.0 leaf stage, (4) redroot pigweed (Amaranthus retroflexus L.): cotyledon stage to 2.0 leaf stage, (5) prickly sida (Sida spinosa L.): cotyledon stage to 1.1 leaf stage, (6) velvetleaf (Abutilon theophrasti MEDIC.): cotyledon stage to 1.5 leaf stage, (7) rice (Oryza sativa L.): 1.0 to 2.5 leaf stage, (8) wheat (Triticum spp.): 1.7 to 3.4 leaf stage, (9) corn (Zea mays L.): 2.0 to 3.5 leaf stage, and (10) soybean (Glycine max Merr.): primary leaf stage to 0.3 leaf stage), wettable powders or emulsifiable concentrates of the compounds of the present invention prepared in accordance with a conventional preparation method, were weighed so that the active ingredients became the prescribed amounts, and diluted with water in an amount corresponding to 500 liter per 1 hectare. 0.1 vol % of an agricultural spreader was further added to the respective diluted liquids, followed by foliar treatment with a small sprayer.
(§2) On the 17th to 23rd day after application, the state of growth of the respective plants was visually observed, and the herbicidal effect was evaluated in accordance with a growth inhibition rate (%) of 0 (equivalent to the non-treated area) to 100% (complete kill).

[2] = test system: wheat (Triticum spp.); assay: Test Example 1: foliar treatment, growth inhibition rate, wheat
Text: as §1, §2

[3] = test system: greenfoxtail (Setaria viridis L.); assay: Test Example 1: foliar treatment, growth inhibition rate, greenfoxtail
Text: as §1, §2

[4] = test system: corn (Zea mays L.); assay: Test Example 1: foliar treatment, growth inhibition rate, corn
Text: as §1, §2

[5] = test system: rice (Oryza sativa L.); assay: Test Example 1: foliar treatment, growth inhibition rate, rice
Text: as §1, §2

[6] = test system: crabgrass (Digitaria sanguinalis L.); assay: Test Example 1: foliar treatment, growth inhibition rate, crabgrass
Text: as §1, §2

[7] = test system: prickly sida (Sida spinosa L.); assay: Test Example 1: foliar treatment, growth inhibition rate, prickly sida
Text: as §1, §2

[8] = test system: barnyardgrass (Echinochloa crus-galli L.); assay: Test Example 1: foliar treatment, growth inhibition rate, barnyardgrass
Text: as §1, §2

[9] = test system: velvetleaf (Abutilon theophrasti MEDIC.); assay: Test Example 1: foliar treatment, growth inhibition rate, velvetleaf
Text: as §1, §2

[10] = test system: redroot pigweed (Amaranthus retroflexus L.); assay: Test Example 1: foliar treatment, growth inhibition rate, redroot pigweed
Text: as §1, §2

Row | SMILES | Growth inhibition rate (%) Soybean ([1]; 63 g/ha active ingredient) [%] | Growth inhibition rate (%) Wheat ([2]; 63 g/ha active ingredient) [%] | Growth inhibition rate (%) Greenfoxtail ([3]; 63 g/ha active ingredient) [%] | Growth inhibition rate (%) Corn ([4]; 63 g/ha active ingredient) [%] | Growth inhibition rate (%) Rice ([5]; 63 g/ha active ingredient) [%] | Growth inhibition rate (%) Crabgrass ([6]; 63 g/ha active ingredient) [%] | Growth inhibition rate (%) Prickly sida ([7]; 63 g/ha active ingredient) [%] | Growth inhibition rate (%) Barnyardgrass ([8]; 63 g/ha active ingredient) [%] | Growth inhibition rate (%) Velvetleaf ([9]; 63 g/ha active ingredient) [%] | Growth inhibition rate (%) redroot pigweed ([10]; 63 g/ha active ingredient) [%] | Growth inhibition rate (%) Soybean ([1]; 31 g/ha active ingredient) [%] | Growth inhibition rate (%) Wheat ([2]; 31 g/ha active ingredient) [%] | Growth inhibition rate (%) Greenfoxtail ([3]; 31 g/ha active ingredient) [%] | Growth inhibition rate (%) Corn ([4]; 31 g/ha active ingredient) [%] | Growth inhibition rate (%) Rice ([5]; 31 g/ha active ingredient) [%] | Growth inhibition rate (%) Crabgrass ([6]; 31 g/ha active ingredient) [%] | Growth inhibition rate (%) Prickly sida ([7]; 31 g/ha active ingredient) [%] | Growth inhibition rate (%) redroot pigweed ([10]; 31 g/ha active ingredient) [%] | Growth inhibition rate (%) Barnyardgrass ([8]; 31 g/ha active ingredient) [%] | Growth inhibition rate (%) Velvetleaf ([9]; 31 g/ha active ingredient) [%]
1 | CCSC(=O)Oc1c(C(=O)c2ccc(S(C)(=O)=O)c(CC(N)=S)c2C)cnn1C [compound 232] | 90 | 0 | 95 | 0 | 95 | 95 | 70 | 90 | 90 |  |  |  |  |  |  |  |  |  |  | 
2 | CCSC(=O)Oc1c(C(=O)c2ccc(S(C)(=O)=O)c(OCC3OCCO3)c2Cl)cnn1CC [compound 227] | 95 | 0 | 100 | 0 | 30 | 100 | 60 | 100 | 100 | 100 |  |  |  |  |  |  |  |  |  | 
3 | C=C(C)CSC(=O)Oc1c(C(=O)c2ccc(S(C)(=O)=O)c(C(=O)OC)c2C)cnn1CC [compound 101] |  |  |  |  |  |  |  |  |  |  | 90 | 10 | 100 | 30 | 98 | 100 | 70 | 100 | 100 | 98
4 | CCSC(=O)Oc1c(C(=O)c2ccc(S(C)(=O)=O)c(Cl)c2C)cnn1CC [compound 71] |  |  |  |  |  |  |  |  |  |  | 60 | 10 | 60 | 0 | 60 | 40 | 60 | 70 | 70 | 60
5 | COCCOc1c(S(C)(=O)=O)ccc(C(=O)c2cnn(C)c2OC(=O)SC(C)(C)C)c1C [compound 241] |  |  |  |  |  |  |  |  |  |  | 100 |  | 100 | 0 | 90 | 98 | 90 | 100 | 100 | 100
6 | CCC(C)SC(=O)Oc1c(C(=O)c2ccc(S(C)(=O)=O)c(OCCOC)c2C)cnn1C (centres unmarked) [compound 239] |  |  |  |  |  |  |  |  |  |  | 100 |  | 100 | 0 | 85 | 100 | 80 |  | 98 | 100
